Several values for one entry are separate records, joined by “and”; a condition that tells them apart may be missing. Equal values may be shown once.
Legend:
CEM tumor cell line = experiment: MTT cytotoxicity / cell proliferation assay; assay type: cell-based, human; settings: 24 hours, concentrations as high as 1000 μg/ml
Description: (§1) FIGS. 4A-4B show cytotoxic analysis of RR1 in normal lymphocytes (a) and tumor cell lines (b). Cells (10^6) were treated with RR1 for 24 hours and cytotoxicity assay performed using MTT cell proliferation kit (Roche Biochemicals). The percentage of surviving cells over control was plotted against RR1 concentrations.
(§2) Immunostimulating Properties. To measure the immune stimulatory property of RR1, the activation of the different subsets of lymphocytes, syntheses of cytokines such as interleukin (IL)-1β, IL-2, IL-4, IL-6, IL-10, IL-12 p70 and p40, IL-18, interferon (IFN)-α and γ, Tumor Necrosis factor (TNF)-α and β, monocyte chemo-attractant protein (MCP)-1, synthesis of nitric oxide (NO), and the extent of oxidative stress elicited in human lymphocytes was analyzed. Normal lymphocytes were isolated by the histopaque density gradient method from fresh blood drawn from healthy volunteers and utilized for various assays. Human leukemic (CEM) and multidrug resistant (CEM/VLB) cell lines were grown in RPMI medium supplemented with 10% fetal bovine serum and antibiotics in 5% CO2 incubator at 37° C.

CEM/VLB tumor cell line = experiment: MTT cytotoxicity / cell proliferation assay; assay type: cell-based, human; settings: 24 hours, concentrations as high as 1000 μg/ml
Description: as §1, §2

normal lymphocytes [1] = experiment: MTT cytotoxicity / cell proliferation assay; assay type: cell-based, human; settings: 24 hours, concentrations as high as 1000 μg/ml
Description: as §1, §2

[2] = tested on: normal lymphocytes (NK, T and B cells); experiment: Activation of lymphocyte subsets, flow cytometry (CD69); assay type: cell-based, human
Description: Normal lymphocytes were treated with RR1 (0-100 μg/ml) for 24 hours at 37° C. in a CO2 incubator. The cells were stained with a panel of cell specific antibodies conjugated with different fluorochromes: CD3-FITC, CD16/56-PE, CD19-ECD, CD69-PC5 or CD8-FITC, CD4-PE, CD3-ECD, CD69-ECD. The stained cells were analyzed in a Coulter Elite flow cytometer in a 4-color assay. ***p<0.001.
Activation of Lymphocytes. Normal lymphocytes (10^6/ml) were treated with 0-100 μg of RR1 for 24 hours in a CO2 incubator maintained at 37° C. in RPMI medium. The cells were then stained with specific fluorochrome-conjugated monoclonal antibodies for 30 minutes at room temperature and analyzed in a Coulter Elite Flow Cytometer by four and five color immunotyping assay protocol of Alamo and Melnick (Alamo, A. L. and S. J. Melnick Cytometry, 2000, 42:363-370) and the percentage of activation of subsets of lymphocytes such as NK, T and B cells were calculated.

RAW 264.7 cells = experiment: RR1-induced TNF-α synthesis with and without CAPE, ELISA; assay type: cell-based, mouse; settings: RAW 264.7, RR1 0-1000 μg/ml
Description: The cells were pre-incubated with 10 μg/ml CAPE for 1 hour in 0.5% FBS containing DMEM medium and replaced with medium containing RR1 at varying concentrations for 4 hour at 37° C. The medium was analyzed for secreted TNF-α using ELISA protocol.
RR1-induced TNF-α synthesis. RAW 264.7 cells (0.5×10^6/ml) were plated on 6-well plates with DMEM medium containing 0.5% FBS (starvation). Once the cells were attached, medium was replaced, RR1 was added at 0, 100, 500 and 1000 μg/ml doses and incubated at 37° C. for 24 hours. The medium was analyzed for the secreted TNF-α using the ELISA kit (BD BIOSCIENCES kit, San Jose, Calif.) based on the manufacturer's protocol.
To determine the effect of NF-κB inhibitor CAPE on TNF-α synthesis, RAW 264.7 cells were treated with 10 μg/ml of CAPE for 1 hour at 37° C. followed by treatment with RR1 (0-1000 μg/ml) overnight in the incubator. The secreted TNF-α in the medium was analyzed using ELISA (BD BIOSCIENCES, San Jose, Calif.).

[3] = tested on: NF-κB in RAW264.7 macrophages; experiment: NF-κB DNA binding activity of nuclear extracts (ELISA, EMSA); assay type: cell-based, mouse
Description: The macrophages were treated with 100 μg/ml of RR1 and NF-κB activity of the nuclear extracts analyzed at 2, 4, 8, 14, and 20 hours after incubation using ELISA protocol.
NF-κB activity increased with escalating doses of RR1, reaching a plateau at 500 μg/ml.
NF-κB activity. RAW264.7 cells were incubated with 0, 100, 500 and 1000 μg/ml of RR1 for 8 hours and the nuclear proteins were extracted using the NF-κB activity kit from Active Motif, CA according to manufacturer's ELISA instructions. To visualize the NF-κB activation further, Electrophoretic Mobility Shift Assay (EMSA) was performed (Ghosh, S, and Karin, M., Cell, 2002, 109:S81-96; Young, S. H. et al. J. Biol Chem., 2001, 276:20781-20787; Lebron, F. et al. J Biol Chem., 2003, 278:25001-25008) with the nuclear protein. A double stranded probe that binds NF-κB (5′-[…]-3′, SANTA CRUZ BIOTECHNOLOGY, Santa Cruz, Calif.) was radio labeled with ^32P-ATP, and EMSA performed with 5 μg of nuclear extract. The EMSA reaction mixtures were incubated for 30 minutes at room temperature, and DNA-protein complexes were separated on 6% polyacrylamide gels and visualized by autoradiography. […] The nuclear extracts were analyzed for the protein content, and NF-κB activity analyzed using ELISA kit from ACTIVE MOTIF, Carlsbad, Calif.

[4] = tested on: TLR2, TLR4 and TLR6 mRNAs in RAW264.7 cells; experiment: TLR mRNA levels, RT-PCR; assay type: cell-based, mouse; settings: 0-1000 μg/m RR1, 24 hours
Description: The cells (1×10^6) were treated with RR1 (0, 10, 100, 500 and 1000 μg/ml) at 37° C. for 24 hours in a CO2 incubator and mRNA amplified with mouse TLR specific primers.
TLR mRNA and protein levels. TLR2, 4 and 6 mRNA levels were analyzed by RT-PCR using total RNAs extracted from RR1 treated cells. Total RNA was extracted from RR1-treated and untreated RAW 264.7 cells and 0.5 μg/ml RNA was reverse transcribed and amplified using mouse TLR2, 4 and 6 specific PCR primers (R&D SYSTEMS, Minneapolis, Minn.). Mouse GAPDH gene was also amplified as a control. The PCR products were separated on agarose gel.

normal lymphocytes [5] = experiment: Quantification of cytokine and chemokine synthesis by ELISA; assay type: cell-based, human; settings: at 100 pg/ml concentration
normal lymphocytes [6] = experiment: Oxidative stress (GSH/GSSG levels); assay type: cell-based, human; settings: data not shown

## (1,4)-α-D-glucan [RR1]
CEM tumor cell line
  direct cytotoxic or cell proliferating effect (MTT): no direct cytotoxic or cell proliferating effect
CEM/VLB tumor cell line
  direct cytotoxic or cell proliferating effect (MTT): no direct cytotoxic or cell proliferating effect
Normal lymphocytes [1]
  direct cytotoxic or cell proliferating effect (MTT): no direct cytotoxic or cell proliferating effect
[2]; 100 μg/ml RR1
  fold activation of NK cells: > 3 fold
[2]; 100 μg/ml RR1, 24 hours
  activation of B cells: 39%
  activation of NK cells: 331%
  activation of T cells: 102%
RAW 264.7 cells
  synthesis of TNF-α: dose-dependent increase
[3]; 100 μg/ml RR1, ELISA
  time of stimulation at which NF-κB activity peaked: 8 h
[3]; 8 hours of stimulation
  RR1 dose at which NF-κB activity reaches a plateau: 500 to 1000 µg/mL and 500 µg/mL
[4]
  mRNA levels of TLR2, 4 and 6: remained similar
Normal lymphocytes [5]
  synthesis of IL-1β: 1080 pg/mL
Normal lymphocytes [6]
  amount of hydrogen peroxide: No significant elevation
